This is an account of results in patent US9610249B2, “Dosage and administration for preventing cardiotoxicity in treatment with ERbB2-targeted immunoliposomes comprising anthracycline chemotherapeutic agents” (MERRIMACK PHARMACEUTICALS, INC., priority 2010, dated 2017).

The subject of data set [1] is phospho-HSP27. Type of data set: cell-based. Here is the method: (§1) Cardiomyocytes are treated as described above. Cells are fixed using 3.7% formaldehyde, washed twice with PBS containing 0.1% Tween-20 (PBS-T), and permeabilized with methanol. Cells are blocked using a 1:1 mixture of LI-COR® Odyssey® Blocking Buffer (Lincoln, Nebr.) and PBS-T for 1 h at room temperature (RT). Cells are stained with a 1:400 dilution of the indicated primary antibody from Cell Signaling Technology (Beverly, Mass.) and incubated shaking at 4° C. overnight. Cells are washed and incubated with a 1:2,000 dilution of the fluorescently labeled secondary antibody for 1 h at RT. Cells are stained with a 1:10,000 dilution of Hoechst 33342 and 1:1,000 dilution of Whole Cell Stain from Pierce Protein Research Products (Rockford, Ill.) for 30 min at RT to allow visualization of DNA and the whole cell, respectively. Plates are scanned using the Applied Precision Instruments ArrayWorx® High Content Scanner (Issaquah, Wash.) with a 10× objective for Hoechst 33342/Whole Cell Stain (460 nm), doxorubicin (595 nm), and APC/DiI5 (657 nm). Images are analyzed using the software ImageRail (as described in Millard et al., Nat Methods. 2011; 8:487-92). An intensity threshold is established for nuclear and whole cell signals. This threshold is then applied to all images and used to segment individual cells. […]

For data set [2], the system named is iPSd cardiomyocytes. Format: cell-based, human. The text has this:
Exposure to low levels of doxorubicin can be cytotoxic.

Data set [3] deals with BT474-M3 cells. The data set is described as follows: Binding and internalization into HER2 over-expressing tumor cells (total and nuclear doxorubicin). As to conditions: BT474-M3 (1.7×10^6 HER2/cell), 15 μg/ml, up to 3 h. Format: cell-based, human.
Data set [4] relates to Troponin I (iPSd cardiomyocytes).
Description: 15,000 iPSd (iCELL®) cardiomyocytes (Cellular Dynamics International, Madison Wis.) cells are plated per the manufacturer's protocol. […] The supernatant is collected and analyzed using a human Troponin I ELISA (Catalog #: GWB-83A61F, Genway Biotech, San Diego Calif.) per the manufacturer's protocol. A PrestoBlue® Cell Viability Assay (Catalog #: A-13261, Invitrogen, Grand Island, N.Y.) is performed on the remaining cells in 100 μl per the manufacturer's protocol.
A short description of data set [5]: Nuclear doxorubicin in heart sections (confocal microscopy and image analysis). The note with it: 3 mg/kg dox equiv. i.v. Here is the method:
(§2) Mice are randomized into 4 groups that received a single intravenous (i.v.) dose of either PBS, doxorubicin, MM-302-DiI5 or PLD-DiI5 (all at 3 mg/kg), respectively. Mice (n=4/time point/group) are sacrificed at 0.5, 4, 24 and 96 h (doxorubicin) or 168 h (MM-302-DiI5 and PLD-DiI5) after the single dose. Five minutes before sacrificing, mice are injected i.v. with 100 μl of FITC-lectin, to label the vasculature.

For data set [6] the following is noted: patients; cited from earlier work.
In data set [7] the test system is phospho-p53. The data set is described as follows: High-content analysis of cell stress in cardiomyocytes. Format: cell-based, human. The note with it: ESCd cardiomyocytes, 3 h treatment, 24 h fresh media. The protocol: as §1
Data set [8] concerns gamma-H2AX. Format: cell-based, human. Here is the method:
as §1

In data set [9] the test system is iPSd cardiomyocytes. Put plainly: Uptake of liposomes in cardiomyocytes (HPLC). The note with it: iPSd cardiomyocytes (approximately 200,000 HER2 receptors per cell), 15.0 μg/ml dox equiv. Format: cell-based, human. The protocol:
(§3) iPSd cardiomyocytes are plated per the manufacturer's instructions (Cell Dynamics International Cat #CMC-100-110-001) in a 24-well tissue culture plate at 250,000 cells/well. Two days later, the 0.5 ml of media in the wells is removed and replaced with 0.5 ml of 15.0 μg/ml (dox equiv.) of MM-302, PLD or free doxorubicin. The plates are swirled in a “figure 8 fashion” 20 times to maximize exposure of the cells to the liposomes. Cells are incubated with MM-302, PLD or free doxorubicin for the indicated time period after which the media are removed and the cells are washed once with 0.5 ml of PBS. The PBS is removed and 0.5 ml of 0.05% trypsin is added to each well. The cells are monitored, and once detachment begins, 0.5 ml of medium containing FBS is added to each well to inactivate the trypsin. The cells are collected and placed in microcentrifuge tubes. The cells are spun at 1,500 rpm for 5 minutes at 4° C. […] Samples are run on the HPLC machine and concentration per sample is determined by relating values to a doxorubicin standard curve.
(§4) To determine if the level of HER2 expression on cardiomyocytes is sufficient to induce uptake of MM-302, total cellular doxorubicin was quantified by HPLC following treatment of ESCd (FIG. 4A) and iPSd (FIG. 4B) cardiomyocytes.

The subject of data set [10] is ESCd cardiomyocytes. Put plainly: Uptake of liposomes in cardiomyocytes (HPLC). As to conditions: ESCd cardiomyocytes (approximately 70,000 HER2 receptors per cell), 15.0 μg/ml dox equiv. Type of data set: cell-based, human. The protocol: as §3, §4
Data set [11] in a line: Biodistribution of doxorubicin in heart tissue of NCI-N87 tumor bearing mice (HPLC). As to conditions: 3 mg/kg dox equiv. i.v. The protocol:
5-7-week-old female nude mice are purchased from Charles River Laboratories or Taconic Farms, Inc (NCr nude mice). Unless otherwise indicated, mice are inoculated with BT474-M3 breast cancer cells or NCI-N87 gastric cancer cells (NCI-DTP, 10×10^6 cells in 100 μl RPMI) into the right dorsal flank of the mice (subcutaneous injection, s.c.). When the tumors reach an average volume of ˜200 mm^3, studies are performed as described below.
as §2
Heart tissues are weighed and disaggregated with 1 mL H2O using a TissueLyser™ (Qiagen) for 3 min. 100 μl of the homogenate is then transferred into a new tube and 900 μl of 1% acetic acid/methanol is added. For the cultured cells, cells are treated with drug, as described above, trypsinized and lysed using 1.0% acetic acid in methanol. Lysates are vortexed for 10 sec. and placed at −80° C. for 1 h. Samples are spun at room temperature (RT) for 10 min at 10,000 RPM. Supernatants and doxorubicin standards are analyzed by HPLC (Dionex) using a C18 reverse phase column (Synergi™ POLAR-RP® 80 Å, 250×4.60 mm 4 μm column). Doxorubicin is eluted running a gradient from 30% acetonitrile; 70% 0.1% trifluoroacetic acid (TFA)/H2O to 55% acetonitrile; 45% 0.1% TFA/H2O during a 7 min span at a flow rate of 1.0 ml/min. The doxorubicin peak is detected at 6.5 min using an in-line fluorescence detector excited at 485 nm, and emitting at 590 nm.
The macro-level biodistributions of MM-302 (square), PLD (UT-PLD, triangle) and doxorubicin (free dox, circle) were compared in mouse heart tissue (FIG. 7A), human xenograft tumor tissue (FIG. 7B) and paw tissue (FIG. 7C) in NCI-N87 tumor bearing mice inoculated as described above. Mice (n=4/time point/group) were injected i.v. with MM-302, PLD, or free doxorubicin (all at 3 mg/kg dox equiv.) and hearts were collected at 0.5, 4, 24, and 96 h (for dox) or 168 h (for MM-302 and PLD) post injection and doxorubicin quantified by HPLC (FIG. 7A).

The test system of data set [12] is cleaved PARP (cPARP). Type of data set: cell-based. The protocol:
as §1

Data set [13] has as its system phospho-AKT (pAKT). Put plainly: Signaling in iPS-derived cardiomyocytes. Type of data set: cell-based, human. The note with it: 24 hours pretreatment. The protocol: (§5) Cells are stained and imaged using high content microscopy as described above for (A) pAKT and (B) pERK following a10 minute stimulation with 10 nM and 5 nM of heregulin, respectively. The following primary antibodies are used at a 1:400 dilution in blocking buffer: pERK antibody—Cell Signaling Technology (CST—Danvers Mass.)—Catalog 9106L (Phospho-p44/42 MAPK (Erk1/2) (Thr202/Tyr204) (E10) Mouse mAb #9106); pAKT antibody—CST—Catalog 4060L (Phospho-Akt (Ser473) (D9E) XP™ Rabbit mAb #4060). Secondary antibodies are Anti-mouse IgG (H+L), F(ab′)2 Fragment (Alexa Fluor® 647 Conjugate)—CST—Catalog 4410; Anti-rabbit IgG (H+L), F(ab′)2 Fragment (Alexa Fluor® 647 Conjugate)—CST—Catalog 4414. Whole cell stain and DNA stain (Hoechst 33342) are used as described above. Images are analyzed and individual cells are segmented on the basis of Hoechst 33342 nuclear staining. Single cell signal intensity for each stain is quantified and represented as the mean relative intensity of individual cells.
(§6) After stimulation with 10 nM (FIG. 6A) and 5 nM (FIG. 6B) of heregulin (HRG) for 10 min, the levels of phospho-AKT (pAKT, FIG. 6A) and phospho-ERK (pERK, FIG. 6B) were measured by high content microscopy as described above.

Data set [14] relates to phospho-ERK (pERK). The data set is described as follows: Signaling in iPS-derived cardiomyocytes. Type of data set: cell-based, human. As to conditions: 24 hours pretreatment. Here is the method: as §5, §6

Take `COc1cccc2c1C(=O)c1c(O)c3c(c(O)c1C2=O)C[C@@](O)(C(=O)CO)C[C@@H]3O[C@H]1C[C@H](N)[C@H](O)[C@H](C)O1` [doxorubicin, Doxorubicin]: in data set [1], the phospho-HSP27 result was “dose-dependent increase”. Besides, the “effect on cardiomyocyte viability” value in [2] is listed as “marked decrease in viability”. Besides, the “total cell binding and nuclear doxorubicin accumulation” value in data set [3] is “freely enter cells and accumulate in the nucleus”. In addition, in data set [4], the “Troponin I in supernatant” value is listed as “marked increase of Troponin I”. Also, in data set [5] (0.5 h), the “nuclei positive for doxorubicin in heart tissue at 0.5 h” value is “about 50%”. Further, in [5] (4 h), the “nuclei positive for doxorubicin in heart tissue at 4 h” value came to 23%. In addition, the “nuclei positive for doxorubicin in heart tissue at 24 h” value in data set [5] (24 h) is listed as “returned to basal levels”. For the same compound, the “cumulative doxorubicin exposure that increases the potential for cardiomyopathy and heart failure” value in data set [6] is “above 550 mg/m^2”. In data set [7], the phospho-p53 result is “dose-dependent increase”. Further, the “nuclear gamma-H2AX” value in data set [8] is on record as “dose-dependent increase in nuclear gamma-H2AX”. The “total cellular doxorubicin (uptake)” value in data set [9] is recorded as “doxorubicin accumulation in all cells”. Moreover, in data set [10], the “total cellular doxorubicin (uptake)” value is listed as “doxorubicin accumulation in all cells”. In [11], the “clearance of doxorubicin from the heart tissue” value is “faster compared to MM-302 and PLD”; the “time of peak doxorubicin exposure in the heart” value was 0.5 h. The “doxorubicin in the heart at 0.5 h” value in [11] (0.5 h post injection) is on record as 10 % of injected dose (i.d.)/g tissue. The “doxorubicin in the heart at 24 h” value in data set [11] (24 h post injection) is 0.77 % of i.d./g tissue. The “nuclear cleaved PARP (cPARP) at 5.0 μg/ml” value in [12] is “increase in nuclear cleaved PARP”.

For `CS(=O)(=O)CCNCc1ccc(-c2ccc3ncnc(Nc4ccc(OCc5cccc(F)c5)c(Cl)c4)c3c2)o1` [lapatinib], in [13] (no heregulin), the “basal phosphorylation of AKT” value is listed as “reduction in basal phosphorylation”. Besides, in data set [13] (10 nM heregulin, 10 min), the “heregulin (HRG)-induced phosphorylation of AKT” value is “complete inhibition of HRG-induced phosphorylation”. Besides, the “basal phosphorylation of ERK” value in data set [14] (no heregulin) was “reduction in basal phosphorylation”. The “heregulin (HRG)-induced phosphorylation of ERK” value in data set [14] (5 nM heregulin, 10 min) was “complete inhibition of HRG-induced phosphorylation”.
